A short description of this data set: Change in cosurfactant content of soft capsules over storage at room temperature (membrane permeation, gas chromatography). In kind it is physicochemical. The method, then:
The content of the cosurfactant in each soft capsule preparation was analyzed by gas chromatography.
Conditions of gas chromatography for each cosurfactant
Column: Ultra 2 (Crosslinked 2% phenylmethyl silicone gun phase, 25 m
× 0.32 mm, thickness 0.52 μm)
Column temperature: 230° C. (Isothermal)
Detector: FID (Temperature: 270° C.)
Injection temperature: 275° C.
Carrier gas: He (Partition ratio 80:1)
Internal standard: Octyl alcohol
Column: HP20M (Carbowax 20M) (25 m × 0.32 mm, film thickness 0.3
Column temperature: 30° C. (Isothermal)
Detector: FID (Temperature: 200° C.)
Injection temperature: 150° C.
Internal standard: Diethyl ether

For the compound `CO[C@H]1CO[C@H]2[C@@H]1OC[C@H]2OC` [dimethylisosorbide], the “Change of cosurfactant content in soft capsule after 10 days (in words)” value is given as “does not change in its content”. Turning to `CCO` [ethanol], the “Cosurfactant content reduced by, of the initial content, after 10 days” value (soft capsule) came out at 27.8%.

The record behind these values is patent publication US5603951A, “Cyclosporin-containing soft capsule compositions” (Hanmi Pharm. Ind. Co., Ltd., priority 1994, dated 1997).
